Test results taken from PubChem BioAssay AID1418 (Emory University Molecular Libraries Screening Center, 2008).
Active and inactive are the calls of the source. How the calls were made is not given here.

target: Induced myeloid leukemia cell differentiation protein Mcl-1 (Homo sapiens) (UniProt Q07820); test: blockers of Bid binding to Mcl-1 – biochemical, TR-FRET, dose response (AID 1418); conditions: Mcl-1/Bid peptide binding, TR-FRET (europium/Dy647), 2 hr
Sequence (Q07820 whole entry, looked up): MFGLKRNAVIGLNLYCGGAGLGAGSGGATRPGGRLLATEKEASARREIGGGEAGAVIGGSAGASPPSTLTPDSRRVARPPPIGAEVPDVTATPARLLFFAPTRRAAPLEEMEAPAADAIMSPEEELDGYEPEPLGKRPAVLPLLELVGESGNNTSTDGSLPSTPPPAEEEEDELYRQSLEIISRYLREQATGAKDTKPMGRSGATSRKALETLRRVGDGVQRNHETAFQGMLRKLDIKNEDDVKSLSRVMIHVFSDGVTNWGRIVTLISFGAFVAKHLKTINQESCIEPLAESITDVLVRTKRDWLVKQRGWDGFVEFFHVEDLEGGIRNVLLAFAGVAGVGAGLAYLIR

| Structure (SMILES) | IC50 |
| --- | --- |
| C=C1C(=O)[C@@]23[C@H](O)C[C@@H]4C(C)(C)CC[C@H](O)[C@]4(C)[C@@H]2C[C@H](O)[C@@H]1[C@H]3O | > 54 µM (inactive) |
| CCCN(CCC)C(C(=O)Nc1cccc(OC)c1)c1ccccc1 (stereo unspecified) | > 54 µM (inactive) |
| COc1ccc(C(=O)NCc2nnc(SCC(=O)N3CCCCC3)o2)cc1OC | > 54 µM (inactive) |
| Cc1ccc(S(=O)(=O)/N=C(\CCl)N2CCOCC2)cc1 | > 54 µM (inactive) |
| CN1CCCCC1c1ccc(-c2cccnc2)nc1 (stereo unspecified) | inactive |
| COc1ccc(C2Nc3ccccc3C(=O)N2O)cc1OC (stereo unspecified) | > 54 µM (inactive) |
| Cc1c(NC(=O)COC(=O)c2cc(-c3ccc(-c4ccccc4)cc3)nc3ccccc23)c(=O)n(-c2ccccc2)n1C | 0.58 µM |
| O=C(CSc1nccc(=O)[nH]1)c1ccccc1Br | > 54 µM (inactive) |
| O=C(O)c1cnn2c(C(F)(F)F)cc(-c3ccco3)nc12 | > 54 µM (inactive) |
| O=C(NC(Cc1ccccc1)C(=O)O)c1ccc(S(=O)(=O)N2CCCCC2)cc1 (stereo unspecified) | > 54 µM (inactive) |
| CCCC(=O)Nc1ccc2oc(-c3cccnc3)nc2c1 | > 54 µM (inactive) |
| O=C(O)CC(NC(=O)COc1ccc(Cl)cc1Cl)C(=O)O (stereo unspecified) | > 54 µM (inactive) |
| Cc1ccc(C2C3=C(Nc4[nH]n(-c5ccccc5)c(=O)c42)c2ccccc2C3=O)cc1 (stereo unspecified) | 0.74 µM |
| O=C(CCC(=O)c1ccc(Oc2ccccc2)cc1)Nc1cccc(Cl)c1 | > 54 µM (inactive) |
| O=C(O)COc1ccccc1C(Nc1ccccn1)c1cc(Cl)c2cccnc2c1O (stereo unspecified) | 5.42 µM |
| CCOC(=O)C1CCN(C(=O)c2cc(S(=O)(=O)N3CCOCC3)c(Cl)cc2Cl)CC1 | > 54 µM (inactive) |
| COc1cc(/C=C2\SC(=O)N(c3cccc(Cl)c3)C2=O)cc([N+](=O)[O-])c1O | 6.38 µM |
| COc1ccc(-c2csc(NC(=S)NC(=O)/C=C/c3ccco3)n2)cc1OC | > 54 µM (inactive) |
| O=C(N=Nc1c(O)[nH]c2ccc(Cl)cc12)c1cc(-c2cccs2)nc2ccccc12 | 0.57 µM |
| O=C(O)[C@H](Cc1ccccc1)N1Cc2ccccc2C1=O | 22.3 µM |
| Cc1cc(NS(=O)(=O)c2ccc(NC(NC(=O)C(C(F)(F)F)C(F)(F)F)(C(F)(F)F)C(F)(F)F)cc2)no1 | 1.62 µM |
| Cc1ccc(CNC(=O)CCS(=O)(=O)c2cccc3nonc23)cc1 | > 54 µM (inactive) |
| COc1ccc(CCNC(=O)c2ccc(=O)[nH]n2)cc1OC | > 54 µM (inactive) |
| COc1ccc(C(=O)/C=C/c2ccc(N3CCCCC3)c([N+](=O)[O-])c2)cc1 | > 54 µM (inactive) |

| Structure (SMILES) | IC50 |
| --- | --- |
| Cc1cc(NC2C3CC4CC(C3)CC2C4)n2nnnc2n1 (stereo unspecified) | > 54 µM (inactive) |
| COc1cccc(Oc2c(C)oc3c(CN4CCCC4)c(O)ccc3c2=O)c1 | > 54 µM (inactive) |
| COc1cccc(NC(=O)C2c3cc(OC)c(OC)cc3C(=O)N(C)C2c2cccnc2)c1 (stereo unspecified) | > 54 µM (inactive) |
| O=C(CSc1nnc(-c2ccncc2)o1)NCc1ccccc1Cl | > 54 µM (inactive) |
| COc1ccc(-c2ccc(/C=C3/C(=N)N4C=CSC4=NC3=O)o2)c([N+](=O)[O-])c1 | 1.46 µM |
| COc1ccc(C2c3c(C)nn(-c4ccccc4)c3NC(=O)N2c2ccccc2)cc1 (stereo unspecified) | > 54 µM (inactive) |
| Cc1ccc(Cl)c(OCCCN(C)Cc2ccccc2)c1 | > 54 µM (inactive) |
| O=C(O)Cn1cnc2c(=S)nc[nH]c21 | > 54 µM (inactive) |
| COc1ccc(C(=O)Nc2ccc3c(c2)C(=O)c2ccccc2C3=O)cc1OC | 0.6 µM |
| COC(=O)c1ccc(CNC(=O)c2c3c(nc4ccccc24)CCN(Cc2ccccc2)C3)cc1 | > 54 µM (inactive) |
| Cc1ccc(-c2nc(CS(=O)CC(=O)N3CCC4(CC3)OCCO4)c(C)o2)cc1 (stereo unspecified) | > 54 µM (inactive) |
| CC1CC(C)CN(CCOCCSc2ccccc2)C1 (stereo unspecified) | > 54 µM (inactive) |
| Cc1ccc(-c2nc(SCC(=O)Nc3ccccc3OC(F)F)c3c(C)c(C(=O)O)sc3n2)cc1 | > 54 µM (inactive) |
| COc1ccccc1N1CCN(CC(=O)c2c(C)[nH]c3ccccc23)CC1 | > 54 µM (inactive) |
| Cc1ccccc1OCCNC(=O)CNC(=O)c1ccccc1O | > 54 µM (inactive) |
| CN1C(=O)C(=Cc2sc(=O)n(-c3ccccc3)c2N2CCCCC2)C(=O)N(C)C1=O | > 54 µM (inactive) |
| COCC(=O)Nc1ncc(S(=O)(=O)c2ccc([N+](=O)[O-])cc2)s1 | > 54 µM (inactive) |
| COC(=O)c1cccc(OCC(O)Cn2ccnc2)c1 (stereo unspecified) | > 54 µM (inactive) |
| CCOC(=O)c1cc(-c2ccc(/C=C3/C(=O)NC(=O)C(C#N)=C3C)o2)ccc1Cl | 0.79 µM |
| CC(C)(C)NC(=O)c1sccc1C(=O)O | > 54 µM (inactive) |
| COC(=O)c1ccccc1NC(=O)COC(=O)/C=C/c1ccco1 | > 54 µM (inactive) |
| O=C(Nc1ccc(S(=O)(=O)Nc2nccs2)cc1)c1cc(-c2ccccc2Cl)nc2ccccc12 | > 54 µM (inactive) |
| O=C(CSCc1ccccc1)NCCCN1CCOCC1 | > 54 µM (inactive) |
| COC(=O)c1c(C)[nH]c(C(=O)C(C)[N+]23CCN(CC2)CC3)c1C (stereo unspecified) | 2.85 µM |

| Structure (SMILES) | IC50 |
| --- | --- |
| COc1cc2c(cc1OC)C(Nn1cnnc1)=NC1(CCCC1)C2 | > 54 µM (inactive) |
| CC1(C)CC(=O)C2=C(C1)OC(N)=C(C#N)C2c1cccc(OC(=O)c2ccco2)c1 (stereo unspecified) | > 54 µM (inactive) |
| COc1cc(OC)cc(C(=O)N[C@H](C(=O)OCC(=O)NC(=O)c2cccn2C)C(C)C)c1 | > 54 µM (inactive) |
| COc1cc(/C=C2/SC(=S)NC2=O)ccc1OS(=O)(=O)c1ccc(C)cc1 | 9.94 µM |
| NC(=S)n1[nH]c(-c2ccc([N+](=O)[O-])cc2)c(N=Nc2cccc(Cl)c2)c1=O | 0.68 µM |
| N#Cc1ccc(CO/N=C/c2ccccc2)cc1 | > 54 µM (inactive) |
| COc1cc(/C=N/Nc2nnc3c(n2)[nH]c2ccccc23)ccc1O | 2.66 µM |
| CCOC(=O)c1ccc(NC(=O)Oc2ccccc2)cc1 | > 54 µM (inactive) |
| Cc1ccc(-c2nnc(SCC(=O)N/N=C/c3ccc(C)s3)n2-c2ccc(C)cc2)cc1 | > 54 µM (inactive) |
| COc1cc(NC(=O)C2CCN(S(=O)(=O)c3cccc4nonc34)CC2)cc(OC)c1 | > 54 µM (inactive) |
| Cc1ccc2oc(C(F)(F)C(F)F)cc(=O)c2c1 | inactive |
| Cc1ccc(S(=O)(=O)N2CCOCC2)cc1C(=O)N1C(=O)c2cccc(N)c2C1=O | > 54 µM (inactive) |
| O=[N+]([O-])/C(C(Cl)=C(Cl)Cl)=C(\Nc1ccc(F)cc1)n1cncn1 | 17.4 µM |
| CC(C)(C)CC(=O)O/N=C(\N)c1ccccn1 | > 54 µM (inactive) |
| CC(C)[C@H](NC(=O)NCCC1=CCCCC1)C(=O)O | > 54 µM (inactive) |
| NS(=O)(=O)c1ccc(N/N=C/c2ccc(O)c(O)c2O)c([N+](=O)[O-])c1 | 3.17 µM |
| CC(C)NC(=O)c1ccc(COCC(F)(F)F)cc1 | > 54 µM (inactive) |
| O=C(COc1ccccc1)N1CCN(Cc2c[nH]c3ccccc23)CC1 | > 54 µM (inactive) |
| Cc1ccc2c(c1)C1C=CCC1C(C(=O)O)N2 (stereo unspecified) | 2.2 µM |
| Cc1occc1C(=O)NNC(=O)Nc1ccc([N+](=O)[O-])cc1 | > 54 µM (inactive) |
| COc1cc(/C=C2/SC(=S)N(CC3CCCO3)C2=O)ccc1O (stereo unspecified) | > 54 µM (inactive) |
| Cc1ccc(NC(=O)Cn2c(O)c(N=NC(=O)c3cc4ccccc4cc3O)c3ccccc32)cc1 | 6.65 µM |
| COc1ccc(C2CC(c3ccccc3)Nc3nc(N)nn32)cc1 (stereo unspecified) | > 54 µM (inactive) |
